Data published in PubChem BioAssay AID258 (DTP/NCI, 2004).
Toxic doses and inconclusive results are not listed.

System: CD2F1 mice, L1210 leukemia sc, survival T/C
Assay: NCI In Vivo Anticancer Drug Screen. Data for tumor model L1210 Leukemia (subcutaneous) in CD2F1 (CDF1) mice
Conditions: endpoint: median survival time, higher = longer survival
Procedure, shortened: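 Transplantable tumor-bearing mice were treated with compound; survival or tumor size measured and expressed as treated-group value (T) divided by vehicle-treated control value (C).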

In the case of `CS(=O)(=O)CS(=O)(=O)OCCCl`, the T/C (dose: 1.5 mg/kg/injection, schedule: Q03HX024 (ip), vehicle: other) is reported as 106 % of control, the T/C (dose: 3.1 mg/kg/injection, schedule: Q03HX008 (ip), vehicle: other) is reported as 109 % of control and the T/C (dose: 3.1 mg/kg/injection, schedule: Q03HX024 (ip), vehicle: other) is reported as 113 % of control. The T/C (dose: 6.2 mg/kg/injection, schedule: Q01DX005 (iv), vehicle: other) was 104 % of control, the T/C (dose: 6.2 mg/kg/injection, schedule: Q03HX008 (ip), vehicle: other) was 115 % of control and the T/C (dose: 6.2 mg/kg/injection, schedule: Q03HX024 (ip), vehicle: other) was 154 % of control. The T/C (dose: 11.8 mg/kg/injection, schedule: Q03HX008 (ip), vehicle: dextrose) was 187 % of control, the T/C (dose: 12.5 mg/kg/injection, schedule: Q01DX001 (iv), vehicle: other) was 106 % of control and the T/C (dose: 12.5 mg/kg/injection, schedule: Q01DX005 (iv), vehicle: other) was 114 % of control. The T/C (dose: 12.5 mg/kg/injection, schedule: Q01DX009 (ip), vehicle: other) was 122 % of control, the T/C (dose: 12.5 mg/kg/injection, schedule: Q01DX009 (ip), vehicle: saline with Tween-80) was 123 % of control and the T/C (dose: 12.5 mg/kg/injection, schedule: Q03HX008 (ip), vehicle: other) was 155 % of control. The T/C (dose: 12.5 mg/kg/injection, schedule: Q03HX024 (ip), vehicle: other) was 240 % of control, the T/C (dose: 12.5 mg/kg/injection, schedule: Q04DX003 (ip), vehicle: other) was 112 % of control and the T/C (dose: 16.8 mg/kg/injection, schedule: Q03HX008 (ip), vehicle: dextrose) was 217 % of control. The T/C (dose: 24.0 mg/kg/injection, schedule: Q01DX009 (ip), vehicle: dextrose) was 168 % of control, the T/C (dose: 24.0 mg/kg/injection, schedule: Q03HX008 (ip), vehicle: dextrose) was 600 % of control and the T/C (dose: 25.0 mg/kg/injection, schedule: Q01DX001 (ip), vehicle: other) was 111 % of control. For the same compound, the T/C (dose: 25.0 mg/kg/injection, schedule: Q01DX001 (iv), vehicle: other) was 119 % of control, the T/C (dose: 25.0 mg/kg/injection, schedule: Q01DX009 (ip), vehicle: other) was 176 % of control and the T/C (dose: 25.0 mg/kg/injection, schedule: Q01DX009 (ip), vehicle: saline with Tween-80) was 154 % of control. For the same compound, the T/C (dose: 25.0 mg/kg/injection, schedule: Q03HX008 (ip), vehicle: other) was 618 % of control, the T/C (dose: 25.0 mg/kg/injection, schedule: Q03HX024 (ip), vehicle: other) was 618 % of control and the T/C (dose: 25.0 mg/kg/injection, schedule: Q04DX003 (ip), vehicle: other) was 124 % of control. For the same compound, the T/C (dose: 34.3 mg/kg/injection, schedule: Q01DX005 (ip), vehicle: dextrose) was 183 % of control, the T/C (dose: 34.3 mg/kg/injection, schedule: Q01DX009 (ip), vehicle: dextrose) was 204 % of control and the T/C (dose: 34.3 mg/kg/injection, schedule: Q03HX008 (ip), vehicle: dextrose) was 600 % of control. The T/C (dose: 49.0 mg/kg/injection, schedule: Q01DX001 (ip), vehicle: dextrose) was 153 % of control, the T/C (dose: 49.0 mg/kg/injection, schedule: Q01DX002 (ip), vehicle: dextrose) was 180 % of control and the T/C (dose: 49.0 mg/kg/injection, schedule: Q01DX005 (ip), vehicle: dextrose) was 238 % of control. The T/C (dose: 49.0 mg/kg/injection, schedule: Q01DX009 (ip), vehicle: dextrose) was 270 % of control, the T/C (dose: 49.0 mg/kg/injection, schedule: Q03HX008 (ip), vehicle: dextrose) was 600 % of control and the T/C (dose: 50.0 mg/kg/injection, schedule: Q01DX001 (oral), vehicle: other) was 107 % of control. For the same compound, the T/C (dose: 50.0 mg/kg/injection, schedule: Q01DX005 (ip), vehicle: other) was 207 % of control, the T/C (dose: 50.0 mg/kg/injection, schedule: Q01DX005 (iv), vehicle: other) was 226 % of control and the T/C (dose: 50.0 mg/kg/injection, schedule: Q01DX009 (ip), vehicle: other) was 317 % of control. For the same compound, the T/C (dose: 50.0 mg/kg/injection, schedule: Q01DX009 (ip), vehicle: saline with Tween-80) was 242 % of control, the T/C (dose: 50.0 mg/kg/injection, schedule: Q01DX009 (oral), vehicle: other) was 168 % of control and the T/C (dose: 50.0 mg/kg/injection, schedule: Q03HX008 (ip), vehicle: other) was 103 % of control. For the same compound, the T/C (dose: 50.0 mg/kg/injection, schedule: Q04DX003 (ip), vehicle: other) was 209 % of control, the T/C (dose: 70.0 mg/kg/injection, schedule: Q01DX001 (ip), vehicle: dextrose) was 180 % of control and the T/C (dose: 70.0 mg/kg/injection, schedule: Q01DX002 (ip), vehicle: dextrose) was 290 % of control. For the same compound, the T/C (dose: 70.0 mg/kg/injection, schedule: Q01DX005 (ip), vehicle: dextrose) was 600 % of control, the T/C (dose: 70.0 mg/kg/injection, schedule: Q01DX009 (ip), vehicle: dextrose) was 600 % of control and the T/C (dose: 100.0 mg/kg/injection, schedule: Q01DX001 (ip), vehicle: dextrose) was 240 % of control. For the same compound, the T/C (dose: 100.0 mg/kg/injection, schedule: Q01DX001 (ip), vehicle: other) was 618 % of control, the T/C (dose: 100.0 mg/kg/injection, schedule: Q01DX001 (iv), vehicle: other) was 618 % of control and the T/C (dose: 100.0 mg/kg/injection, schedule: Q01DX002 (ip), vehicle: dextrose) was 600 % of control. For the same compound, the T/C (dose: 100.0 mg/kg/injection, schedule: Q01DX005 (ip), vehicle: dextrose) was 600 % of control, the T/C (dose: 100.0 mg/kg/injection, schedule: Q01DX005 (ip), vehicle: other) was 618 % of control and the T/C (dose: 100.0 mg/kg/injection, schedule: Q01DX005 (iv), vehicle: other) was 618 % of control. The T/C (dose: 100.0 mg/kg/injection, schedule: Q01DX009 (ip), vehicle: dextrose) was 600 % of control, the T/C (dose: 100.0 mg/kg/injection, schedule: Q01DX009 (ip), vehicle: other) was 216 % of control and the T/C (dose: 100.0 mg/kg/injection, schedule: Q01DX009 (oral), vehicle: other) was 240 % of control. The T/C (dose: 100.0 mg/kg/injection, schedule: Q04DX003 (ip), vehicle: other) was 353 % of control, the T/C (dose: 142.9 mg/kg/injection, schedule: Q01DX001 (ip), vehicle: dextrose) was 600 % of control and the T/C (dose: 142.9 mg/kg/injection, schedule: Q01DX002 (ip), vehicle: dextrose) was 600 % of control. For the same compound, the T/C (dose: 142.9 mg/kg/injection, schedule: Q01DX005 (ip), vehicle: dextrose) was 101 % of control, the T/C (dose: 200.0 mg/kg/injection, schedule: Q01DX001 (oral), vehicle: other) was 618 % of control and the T/C (dose: 200.0 mg/kg/injection, schedule: Q01DX009 (oral), vehicle: other) was 384 % of control.
For `CCN(CC)c1ccc(/C=C/c2ccnc3ccccc23)cc1`, the T/C (dose: 39.0 mg/kg/injection, schedule: Q01DX Z (sc), vehicle: water) was 100 % of control, the T/C (dose: 65.0 mg/kg/injection, schedule: Q01DX Z (sc), vehicle: water) was 100 % of control and the T/C (dose: 108.0 mg/kg/injection, schedule: Q01DX Z (sc), vehicle: water) was 100 % of control. The T/C (dose: 180.0 mg/kg/injection, schedule: Q01DX Z (sc), vehicle: water) was 100 % of control, the T/C (dose: 300.0 mg/kg/injection, schedule: Q01DX Z (sc), vehicle: water) was 100 % of control and the T/C (dose: 500.0 mg/kg/injection, schedule: Q01DX Z (sc), vehicle: water) was 100 % of control.
In the case of `COc1cc2c(c(OC)c1OC)-c1ccc(N)c(=O)cc1[C@@H](NC(C)=O)CC2`, the T/C (dose: 1.0 mg/kg/injection, schedule: Q01DX Z (sc), vehicle: water) is reported as 90 % of control, the T/C (dose: 2.0 mg/kg/injection, schedule: Q01DX Z (sc), vehicle: water) is reported as 109 % of control and the T/C (dose: 4.0 mg/kg/injection, schedule: Q01DX Z (sc), vehicle: water) is reported as 109 % of control. For the same compound, the T/C (dose: 8.0 mg/kg/injection, schedule: Q01DX Z (sc), vehicle: water) was 109 % of control and the T/C (dose: 16.0 mg/kg/injection, schedule: Q01DX Z (sc), vehicle: water) was 109 % of control.
